Experimental data: PubChem BioAssay AID602167 (The Scripps Research Institute Molecular Screening Center, 2012)
Calls of active or inactive are those of the source. No rule for the calls is given here.

The compounds below were run against transactivating tegument protein VP16 (Human herpesvirus 1), as a GAL4-VP16 activation-domain luciferase reporter (assay: VP16 transactivation inhibitor potency, dose response, counter-screen for SRC3 inhibitor project, cell-based, luminescence, high throughput, SRC3 series (AID 602167)). Conditions: VP16 transactivation luciferase reporter cells.

SMILES	IC50
Nc1ccc(-c2cc3ccccc3oc2=O)cc1	> 35.9 µM (inactive)
O=C(NC1CCCCC1)C(c1cccnc1)N(C(=O)CCl)c1cccc(Cl)c1 (centres undefined)	6.03 µM
C=CS(=O)(=O)N(Cc1ccc(Cl)c(Cl)c1)C[C@@H](O)CO	inactive
COc1ccc(-n2cnc3c(sc4nccc(N(C)C)c43)c2=O)cc1	inactive
COc1cc2[nH]c3c(Cl)ncnc3c2cc1OC	inactive
Cc1c(Cl)cccc1NC(=O)Nc1ccccc1C(N)=O	> 35.9 µM (inactive)
COc1ccc(/C=C2\CC/C(=C\c3ccc(OC)c(OC)c3)C2=O)cc1OC	inactive
C(=NNc1ccc2ccccc2n1)c1ccccn1	inactive
O=C(Nc1nc2cc3c(cc2s1)OCCO3)C1=COCCO1	7.78 µM
CC(C)(C)c1ccc(-c2noc(CCC(=O)Nc3cccnc3)n2)cc1	inactive
CN(C)S(=O)(=O)c1ccc(N2CCN(S(=O)(=O)c3ccc(F)cc3)CC2)c(Cl)c1	9.39 µM
O=[N+]([O-])c1nn(-c2ccc3c(c2)OCCO3)n(O)c1=Nc1ccccc1	9.18 µM
O=[N+]([O-])c1cccc2c1ccc1ncccc12	inactive
COc1ccc(-c2cn[nH]c2-c2ccc(OC)cc2O)cc1	6.04 µM
C=CC[n+]1c(-c2ccc(C)cc2)csc1Nc1ccc(NC(C)=O)cc1	> 35.9 µM (inactive)
CCn1c2ccccc2c2cnc(N=CN(C)C)c(C#N)c21	inactive
Nc1nc(CCl)nc(Nc2cccc3ccccc23)n1	inactive
COc1ccc(/C=C2\CN(Cc3ccccc3)C/C(=C\c3ccc(OC)c(O)c3)C2=O)cc1O	inactive
O=C(CCl)N(c1ccccc1)C1CCCCC1	inactive
CN[C@H]1CCc2cc(OC)c(OC)c(OC)c2-c2ccc(OC)c(=O)cc21	> 35.9 µM (inactive)
O=S(=O)(c1ccc(F)cc1)c1snnc1-c1ccccc1	inactive
Nc1ncccc1C(=O)OCC(=O)N1CCN(S(=O)(=O)c2ccc(Cl)cc2)CC1	9.87 µM

SMILES	IC50
C=C1C(=O)[C@]23C[C@H]1CCC2[C@@]1(C)C(C[C@@H]3O)[C@](C)(C(=O)OC)CC[C@@H]1O (some centres undefined)	5.21 µM
Nc1nc(=S)c2ncn([C@@H]3O[C@H](CO)[C@@H](O)[C@H]3O)c2[nH]1	3.37 µM
O=C(CCl)NC(Cc1ccccc1)c1ccccc1 (centres undefined)	inactive
O=C(Nc1cccnc1)c1ccc(C(=O)Nc2cccnc2)cc1	> 35.9 µM (inactive)
O=C(COC(=O)c1ccc[nH]c1=O)Nc1ccc(N2CCCCC2)cc1	> 35.9 µM (inactive)
CC(=O)NC(c1cc(Cl)c2cccnc2c1O)C(C)C (centres undefined)	inactive
Cc1ccc(NC(=O)c2cc(C)n(-c3ccccc3)c2C)cc1	0.223 µM
CNC(=O)c1cccn(Cc2ccc(C(F)(F)F)cc2)c1=O	> 35.8 µM (inactive)
COc1ccccc1C(=O)N(CCC1CCCN1C)c1nc2ccccc2s1 (centres undefined)	7.9 µM
O=C(CCCc1nc(-c2ccccc2Cl)no1)NC1CCCC1	inactive
Cc1cc2nccc(-c3ccncc3)n2n1	inactive
COc1cc2oc(=O)cc(-c3ccc(-c4ccc(CO)cc4)cc3)c2c(OC)c1OC	5.56 µM
O=C(CC(Nc1ccc(Cl)cc1Cl)C(=O)O)c1ccccc1 (centres undefined)	4.77 µM
NNC(=O)c1cc2ccccc2cc1O	inactive
Cc1ccc2occ(/C=N/NC(=O)[C@@H](N)Cc3ccccc3)c(=O)c2c1	9.66 µM
CC(=O)/C(N=Nc1ccc2c(c1)OCCO2)=C(\C)O	> 12 µM (inactive)
Cc1ccc(-n2c(C)cc(C(=O)COc3cccnc3[N+](=O)[O-])c2C)cc1	inactive
COCCNC(=O)c1cc(-c2ccccn2)nc2ccc(S(=O)(=O)N3CCC(C)CC3)cc12	> 35.9 µM (inactive)
Cc1ccc(C2=NN(C(=O)CCl)C(c3cccs3)C2)o1 (centres undefined)	inactive
Cn1cnc([N+](=O)[O-])c1Sc1nc(N)nc2c1ncn2C1OC(CO)C(O)C1O (centres undefined)	7.47 µM
COc1ccc(-c2nsc3c(N4CCCCC4)ncnc23)cc1	inactive
NC(=S)N/N=C1\CCSc2ccc(Cl)cc21	inactive

SMILES	IC50
COc1cc(/C=C(/C(=O)c2cccs2)c2nc3ccccc3[nH]2)cc(OC)c1O	8.01 µM
NC(=O)c1cc(Sc2ccccc2)nc2ccccc12	inactive
O=C(N/N=C\c1ccc([N+](=O)[O-])s1)c1cncc(Br)c1	6.45 µM
COc1ccc(/C=C2/SC(=S)N(CCC(=O)O)C2=O)cc1	> 35.9 µM (inactive)
CCN(C(C)=O)c1cnc(C=NNC(N)=S)c2ccccc12	4.4 µM
O=c1[nH]cnc2c1nnn2C1OC(CO)C(O)C1O (centres undefined)	inactive
O=C(COc1ccc(Cl)cc1)Nc1ccc(C(=O)NCc2cccnc2)cc1	inactive
NC(=O)c1sc2nc3c(c(-c4ccco4)c2c1N)CCC3	3.1 µM
CCOc1ccc(/C=C2\SC(=S)N(CCC(=O)O)C2=O)cc1	> 35.9 µM (inactive)
COc1ccc(Nc2ccncc2[N+](=O)[O-])cc1	6.45 µM
O=C(CCl)Nc1cccc(-c2cnc3ccccc3n2)c1	inactive
COc1cccc(NC(=O)CSc2nnc(-c3cc(C)n(-c4ccccc4)c3C)o2)c1	2.4 µM
CCOc1ccc(Nc2cc(C)nc(-n3nc(C)cc3C)n2)cc1	inactive
COc1ccc(OC)c(Cc2cnc3nc(N)nc(N)c3c2C)c1	> 35.9 µM (inactive)
COc1cc2c(ccc3cc(OC)c(OC)c(O)c32)cc1O	inactive
CC(C)N(c1ccccc1)c1ccc(NC(=O)CCl)cc1	inactive
CCCC(=O)NC(c1ccc(Cl)cc1)c1ccc2cccnc2c1O (centres undefined)	4.4 µM
Cc1cccc2sc(NNC(=O)c3ccc(S(=O)(=O)N4CC(C)CC(C)C4)cc3)nc12 (centres undefined)	7.55 µM
COc1ccc2[nH]c(=O)c(CN(CCN3CCCC3)C(=O)Nc3ccccc3Cl)cc2c1	inactive
CN(Cc1cnc2nc(N)nc(N)c2n1)c1ccc(C(=O)N[C@@H](CCC(=O)O)C(=O)O)cc1	> 35.9 µM (inactive)
CC[C@@]1(O)C(=O)OCc2c1cc1n(c2=O)Cc2cc3c(NC(=O)CN)cccc3nc2-1	> 35.9 µM (inactive)
CCc1ccc(/C=C2\SC(=S)N(CCCC(=O)NCCCN3CCOCC3)C2=O)cc1	inactive

SMILES	IC50
O=C(c1ccncc1)N(Cc1cc2ccccc2[nH]c1=O)C1CCCCC1	7.96 µM
CCOc1ccc(/C=C2\SC(=S)N(CCCC(=O)NCCCN3CCOCC3)C2=O)cc1	inactive
Cc1c(CC(=O)NCCCC(=O)O)c(=O)oc2cc3c(cc12)CCC(C)(C)O3	inactive
Fc1ccc(CSc2nnc(-c3ccncc3)o2)cc1	3.81 µM
Cc1cccc(Oc2sc(C(=O)c3ccccc3)c(N)c2C#N)c1	inactive
COc1cc(C2c3cc4c(cc3C(OC3OC5COC(c6cccs6)OC5C(O)C3O)C3COC(=O)C23)OCO4)cc(OC)c1O (centres undefined)	> 35.8 µM (inactive)
CC(C)(C)c1cc(C(=O)N/N=C/c2ccc(O)cc2)n(-c2ccccc2)n1	inactive
C=CCn1c(C)cc(C(=O)COc2ccc(C)nc2[N+](=O)[O-])c1C	inactive
CN(Cc1cnc2nc(N)nc(N)c2n1)c1ccc(C(=O)NC(CCC(=O)O)C(=O)O)cc1 (centres undefined)	> 35.9 µM (inactive)
CCCC(=O)NC(c1ccc2c(c1)OCO2)c1cc(Cl)c2cccnc2c1O (centres undefined)	7.92 µM
Cc1ccc(N=Nc2ccc3ccccc3c2O)cc1	inactive
CN1C(=O)C2(C(C#N)=C(N)N(c3cc(Cl)cc(Cl)c3)C3=C2C(=O)CCC3)c2ccccc21 (centres undefined)	inactive
COC(=O)c1cc(S(=O)(=O)NCCc2ccc(Cl)cc2)c[nH]1	inactive
COc1cc(/C=N/NC(=Nc2ccc(C)cc2)c2nc3ccccc3s2)ccc1O	inactive
CCOc1ccccc1-n1c(SCC(=O)Nc2ccccc2C(=O)O)nc2ccccc2c1=O	inactive
Cc1ccc(N(CCC#N)C(=O)CCl)cc1C	> 12 µM (inactive)
Nc1ncnc(NCc2ccccc2)c1[N+](=O)[O-]	inactive
Cc1ncc(CO)c(/C=N/NC(=O)c2cc3c(s2)CCCC3)c1O	6.04 µM
CCOC(=O)CC(=O)CSc1nccc(-c2cccnc2)n1	inactive
COc1cc(NS(C)(=O)=O)ccc1Nc1c2ccccc2nc2ccccc12	> 35.9 µM (inactive)
c1cc2[nH]snc2c2nc(C3CC3)nc12	4.83 µM
Nc1nccc(-c2ccc(-n3cnc4ccccc43)cc2)n1	7.5 µM

SMILES	IC50
CCCS(=O)(=O)Nc1ccc(Nc2c3ccccc3nc3ccccc23)c(OC)c1	> 35.9 µM (inactive)
CCn1ccnc1CN(C)Cc1cn[nH]c1-c1ccc(OC)c(F)c1	7.96 µM
CN1C(=O)C2(C(C#N)=C(N)N(c3cc(Cl)cc(Cl)c3)C3=C2C(=O)CC(C)(C)C3)c2ccccc21 (centres undefined)	inactive
CNc1ncnc(Sc2nc(N)nc3nc[nH]c23)c1[N+](=O)[O-]	4.85 µM
NC(=S)N/N=C1\CCOc2ccc(Cl)cc21	inactive
CCCc1c(C)nc2ccccc2c1SCCC#N	inactive
c1ccc(-c2noc(-c3ccc4ccccc4c3)n2)nc1	6.07 µM
CC(=O)Nc1ccc(SCC(=O)c2cc(C)n(-c3ccccc3F)c2C)cc1	> 12 µM (inactive)
CCC(=O)c1ccc(O)c(CC=C(C)C)c1	9.84 µM
Cc1ccc2occ(/C=N/NC(=O)c3ccccc3Br)c(=O)c2c1	9.36 µM
O=C(OCc1ccccc1)c1ccc(NCc2cc(O)ccc2O)cc1	5.95 µM
O=[N+]([O-])c1ccc(N(CCO)CCO)c2c1no[n+]2[O-]	5.59 µM
N#Cc1c2ccc(O)cc2n2ccccc12	> 35.9 µM (inactive)
O=c1[nH]c(O)c(N=Nc2ccc3c(c2)OCCO3)c(=O)[nH]1	inactive
Nc1nc2c(nnn2C2CC(O)C(CO)O2)c(=O)[nH]1 (centres undefined)	inactive
COc1cccc(/C=N/Nc2cc(-n3nc(C)cc3-c3ccccc3)ncn2)c1O	6.45 µM
Cc1nc(N2CCC(C(N)=O)CC2)c2c(-c3cccs3)csc2n1	inactive
Cc1ccc(OCC(=O)c2cc(C)n(-c3ccccc3)c2C)c([N+](=O)[O-])n1	inactive
CC(=O)N1CCN(c2ncnc3ccccc23)CC1	inactive
COC(=O)c1cccc2c1-c1ccccc1/C2=N/O	5.73 µM
CCOc1cc(C(N)=O)cc(Br)c1OC	> 35.9 µM (inactive)
